Tests used:
lipoamide = compound: NC(=O)CCCCC1CCSS1 [lipoamide]; assay: thermal stability z-score vs DMSO; higher = more thermally stabilized by treatment; details: HeLa, lipoamide concentration 100 µM
Protocol: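 Cellular thermal proteome profiling in HeLa cells. Cells were treated with 100 µM lipoamide for 1 h, with or without 1 mM arsenate for a further 1 h, then heated to ten temperatures (37-66.3 °C), and soluble protein was quantified by TMT mass spectrometry relative to 0.1% DMSO controls. The thermal stability score (sum of log2 fold changes minus the abundance score) was transformed to a z-score; mean of n = 3 experiments.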

potassium arsenate = compound: O=[As]([O-])(O)O.[K+] [potassium arsenate]; assay: as above; details: HeLa; arsenate concentration 1 mM
Protocol: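 Cellular thermal proteome profiling in HeLa cells treated with 1 mM arsenate for 1 h (DMSO pretreatment), heated to ten temperatures (37-66.3 °C). Soluble protein was quantified by TMT mass spectrometry relative to DMSO controls; the thermal stability score was transformed to a z-score; mean of n = 3 experiments.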

[1] = arsenate co-treatment: 1 mM arsenate 1 h
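Note: each temperature applied for 3 min, abundance score taken as mean log2 fold change at the two lowest temperatures, z-score obtained by mean subtraction and division by SD.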

Chain of UniProt P14859 (P14859 whole entry): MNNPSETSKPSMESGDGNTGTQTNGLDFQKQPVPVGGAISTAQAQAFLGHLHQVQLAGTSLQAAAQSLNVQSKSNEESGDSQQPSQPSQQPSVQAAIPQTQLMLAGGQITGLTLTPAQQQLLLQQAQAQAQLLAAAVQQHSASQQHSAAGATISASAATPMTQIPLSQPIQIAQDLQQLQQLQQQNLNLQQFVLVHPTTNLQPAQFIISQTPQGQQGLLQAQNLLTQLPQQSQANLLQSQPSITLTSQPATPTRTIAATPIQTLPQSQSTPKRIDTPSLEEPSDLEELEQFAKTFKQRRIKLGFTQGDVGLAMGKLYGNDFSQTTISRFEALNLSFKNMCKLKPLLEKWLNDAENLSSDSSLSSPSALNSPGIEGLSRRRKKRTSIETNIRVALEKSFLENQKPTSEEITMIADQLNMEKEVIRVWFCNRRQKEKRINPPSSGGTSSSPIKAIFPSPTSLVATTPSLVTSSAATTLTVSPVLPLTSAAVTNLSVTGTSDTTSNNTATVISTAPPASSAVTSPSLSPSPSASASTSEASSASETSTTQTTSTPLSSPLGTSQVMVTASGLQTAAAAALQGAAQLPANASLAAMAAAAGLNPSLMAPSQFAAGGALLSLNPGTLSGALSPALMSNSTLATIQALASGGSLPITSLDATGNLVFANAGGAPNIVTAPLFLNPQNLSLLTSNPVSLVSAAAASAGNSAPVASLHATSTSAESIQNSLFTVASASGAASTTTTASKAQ
Chain of UniProt Q9NRP2 (Q9NRP2 whole entry): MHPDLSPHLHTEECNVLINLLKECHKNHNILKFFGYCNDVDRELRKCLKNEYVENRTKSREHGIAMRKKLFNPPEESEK
Chain of UniProt O75143 (O75143 whole entry): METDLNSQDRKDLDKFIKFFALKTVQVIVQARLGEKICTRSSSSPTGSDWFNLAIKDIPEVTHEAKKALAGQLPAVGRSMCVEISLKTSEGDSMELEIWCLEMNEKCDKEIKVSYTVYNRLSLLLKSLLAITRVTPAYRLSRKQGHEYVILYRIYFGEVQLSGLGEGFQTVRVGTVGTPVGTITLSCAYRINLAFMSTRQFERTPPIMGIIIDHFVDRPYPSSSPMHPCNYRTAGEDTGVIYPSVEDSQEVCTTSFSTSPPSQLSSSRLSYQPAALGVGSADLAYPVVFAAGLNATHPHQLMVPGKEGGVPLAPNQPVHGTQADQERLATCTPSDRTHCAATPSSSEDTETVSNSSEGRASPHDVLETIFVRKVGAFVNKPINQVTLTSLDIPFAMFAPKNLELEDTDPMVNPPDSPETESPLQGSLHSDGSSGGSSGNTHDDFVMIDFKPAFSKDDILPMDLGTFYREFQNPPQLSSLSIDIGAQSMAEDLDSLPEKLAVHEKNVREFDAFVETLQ
Chain of UniProt P68400 (P68400 whole entry, looked up): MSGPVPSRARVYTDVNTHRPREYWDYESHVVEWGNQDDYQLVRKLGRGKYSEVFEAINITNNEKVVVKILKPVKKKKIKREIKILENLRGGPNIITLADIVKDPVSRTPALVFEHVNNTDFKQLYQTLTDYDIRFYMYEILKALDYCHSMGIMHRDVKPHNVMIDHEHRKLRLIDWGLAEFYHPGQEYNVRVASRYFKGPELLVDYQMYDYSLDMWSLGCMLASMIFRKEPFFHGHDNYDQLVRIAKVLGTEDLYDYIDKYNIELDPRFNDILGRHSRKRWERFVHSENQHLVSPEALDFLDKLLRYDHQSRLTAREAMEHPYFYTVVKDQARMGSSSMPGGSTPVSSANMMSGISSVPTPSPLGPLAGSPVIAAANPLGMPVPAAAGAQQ
Chain of UniProt O15084 (O15084 whole entry): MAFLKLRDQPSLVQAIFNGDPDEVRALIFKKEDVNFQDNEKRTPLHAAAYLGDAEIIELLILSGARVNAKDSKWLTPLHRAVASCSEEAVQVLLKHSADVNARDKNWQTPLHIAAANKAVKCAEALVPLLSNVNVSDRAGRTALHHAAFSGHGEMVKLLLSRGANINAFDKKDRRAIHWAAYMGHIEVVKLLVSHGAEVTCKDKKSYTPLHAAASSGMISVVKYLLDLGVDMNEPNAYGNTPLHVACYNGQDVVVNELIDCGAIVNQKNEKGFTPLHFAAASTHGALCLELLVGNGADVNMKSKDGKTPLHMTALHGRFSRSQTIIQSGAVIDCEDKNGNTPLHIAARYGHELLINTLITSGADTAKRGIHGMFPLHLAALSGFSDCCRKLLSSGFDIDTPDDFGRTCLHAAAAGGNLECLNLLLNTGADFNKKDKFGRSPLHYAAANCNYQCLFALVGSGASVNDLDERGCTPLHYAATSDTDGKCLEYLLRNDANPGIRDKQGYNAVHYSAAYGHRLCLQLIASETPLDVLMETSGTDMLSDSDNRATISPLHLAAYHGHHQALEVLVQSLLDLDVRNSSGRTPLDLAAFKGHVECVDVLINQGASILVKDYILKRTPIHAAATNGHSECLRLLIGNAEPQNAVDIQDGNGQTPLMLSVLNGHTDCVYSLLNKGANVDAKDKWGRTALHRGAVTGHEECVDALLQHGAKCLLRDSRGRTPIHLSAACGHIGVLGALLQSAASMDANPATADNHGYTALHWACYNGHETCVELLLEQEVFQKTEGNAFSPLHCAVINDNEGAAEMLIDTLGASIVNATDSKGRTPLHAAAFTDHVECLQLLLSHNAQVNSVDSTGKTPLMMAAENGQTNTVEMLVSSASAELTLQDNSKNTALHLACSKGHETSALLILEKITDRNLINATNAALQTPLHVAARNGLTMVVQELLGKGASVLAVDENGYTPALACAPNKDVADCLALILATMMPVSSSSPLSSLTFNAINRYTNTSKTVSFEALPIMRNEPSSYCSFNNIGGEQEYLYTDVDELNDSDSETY
Chain of UniProt Q8TBZ6 (Q8TBZ6 whole entry): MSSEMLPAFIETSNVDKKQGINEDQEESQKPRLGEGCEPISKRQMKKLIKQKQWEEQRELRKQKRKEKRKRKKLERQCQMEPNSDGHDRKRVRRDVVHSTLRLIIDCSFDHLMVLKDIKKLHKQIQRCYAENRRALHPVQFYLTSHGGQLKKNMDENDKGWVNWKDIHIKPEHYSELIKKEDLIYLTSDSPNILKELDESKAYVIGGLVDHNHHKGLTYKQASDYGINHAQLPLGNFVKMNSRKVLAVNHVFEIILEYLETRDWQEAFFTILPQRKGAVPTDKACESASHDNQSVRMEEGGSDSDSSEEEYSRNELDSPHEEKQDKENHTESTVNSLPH
Chain of UniProt Q9HA64 (Q9HA64 whole entry): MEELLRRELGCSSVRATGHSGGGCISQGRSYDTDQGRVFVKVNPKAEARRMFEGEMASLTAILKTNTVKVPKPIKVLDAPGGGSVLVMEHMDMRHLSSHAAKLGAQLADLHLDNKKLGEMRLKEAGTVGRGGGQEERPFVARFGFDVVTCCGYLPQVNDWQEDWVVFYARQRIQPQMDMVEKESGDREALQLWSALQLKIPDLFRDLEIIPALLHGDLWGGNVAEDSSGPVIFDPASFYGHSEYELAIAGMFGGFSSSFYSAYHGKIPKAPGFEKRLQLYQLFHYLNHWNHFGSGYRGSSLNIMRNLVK
Chain of UniProt P09038 (P09038 whole entry): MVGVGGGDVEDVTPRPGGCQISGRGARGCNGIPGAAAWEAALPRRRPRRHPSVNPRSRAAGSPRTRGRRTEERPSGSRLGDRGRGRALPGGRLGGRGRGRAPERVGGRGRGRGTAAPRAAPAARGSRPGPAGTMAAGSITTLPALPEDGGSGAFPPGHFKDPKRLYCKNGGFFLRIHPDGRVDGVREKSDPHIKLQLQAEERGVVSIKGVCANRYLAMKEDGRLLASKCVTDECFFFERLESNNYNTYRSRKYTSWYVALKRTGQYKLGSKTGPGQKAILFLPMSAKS
Chain of UniProt Q96D15 (Q96D15 whole entry): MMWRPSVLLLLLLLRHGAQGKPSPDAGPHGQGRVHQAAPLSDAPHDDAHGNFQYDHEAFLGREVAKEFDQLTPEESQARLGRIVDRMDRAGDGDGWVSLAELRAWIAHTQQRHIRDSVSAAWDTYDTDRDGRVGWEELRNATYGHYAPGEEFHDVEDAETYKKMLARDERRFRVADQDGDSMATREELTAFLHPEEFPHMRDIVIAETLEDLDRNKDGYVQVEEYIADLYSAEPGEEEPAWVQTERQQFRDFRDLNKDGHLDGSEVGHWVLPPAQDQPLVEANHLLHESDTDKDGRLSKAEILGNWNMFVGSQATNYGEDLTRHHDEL
Chain of UniProt O60921 (O60921 whole entry): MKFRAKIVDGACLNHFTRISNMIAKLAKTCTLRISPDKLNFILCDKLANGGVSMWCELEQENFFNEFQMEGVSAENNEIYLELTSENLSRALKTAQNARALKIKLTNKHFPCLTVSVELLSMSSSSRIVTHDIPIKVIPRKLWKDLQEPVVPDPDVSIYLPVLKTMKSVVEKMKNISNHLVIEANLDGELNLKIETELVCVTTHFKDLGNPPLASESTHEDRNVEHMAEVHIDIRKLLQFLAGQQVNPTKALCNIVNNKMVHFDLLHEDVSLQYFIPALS
Chain of UniProt Q86WQ0 (Q86WQ0 whole entry): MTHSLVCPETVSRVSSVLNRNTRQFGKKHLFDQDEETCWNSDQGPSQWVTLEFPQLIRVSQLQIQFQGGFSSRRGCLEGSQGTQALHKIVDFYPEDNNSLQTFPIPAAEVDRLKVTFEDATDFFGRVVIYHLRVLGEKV
Chain of UniProt Q8NEF9 (Q8NEF9 whole entry): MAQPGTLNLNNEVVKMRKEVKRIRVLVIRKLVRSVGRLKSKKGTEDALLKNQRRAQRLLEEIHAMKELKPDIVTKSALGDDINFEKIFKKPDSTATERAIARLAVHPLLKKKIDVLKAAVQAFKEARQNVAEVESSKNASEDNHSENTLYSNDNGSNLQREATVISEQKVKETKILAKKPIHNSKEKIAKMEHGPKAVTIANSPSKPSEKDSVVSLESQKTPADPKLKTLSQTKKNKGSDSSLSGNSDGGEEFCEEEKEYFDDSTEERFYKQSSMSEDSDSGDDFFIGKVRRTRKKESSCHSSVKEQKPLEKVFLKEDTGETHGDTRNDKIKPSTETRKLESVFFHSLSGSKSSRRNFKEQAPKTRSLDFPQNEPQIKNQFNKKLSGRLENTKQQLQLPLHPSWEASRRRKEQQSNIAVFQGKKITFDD

Target | thermal stability z-score (lipoamide; [1]) | thermal stability z-score (lipoamide; arsenate co-treatment: none) | thermal stability z-score (potassium arsenate)
TAMM41 (UniProt Q96BW9) | -0.232 | 0.102 | 0.161
COX4I1 (UniProt P13073) | 0.239 | 0.296 | 0.514
DIABLO (UniProt Q9NR28) | 0.979 | 0.495 | 0.154
GPR126 (UniProt Q86SQ4) | -1.33 | -1.02 | -0.42
CDC42BPA (UniProt Q5VT25) | 0.504 | 0.561 | 0.379
LDAH (UniProt Q9H6V9) | -0.0856 | -0.00844 | 0.0377
FAM122B (UniProt Q7Z309) | -0.0455 | -0.144 | -0.217
CACTIN (UniProt Q8WUQ7) | -0.265 | -0.163 | -0.0248
CMC2 (UniProt Q9NRP2) | 0.275 | 0.104 | 0.218
GMEB2 (UniProt Q9UKD1) | 0.0462 | -0.00217 | 0.453
VASP (UniProt P50552) | 0.564 | 0.923 | -0.33
ATG13 (UniProt O75143) | -0.00854 | 0.21 | 0.699
PSMB2 (UniProt P49721) | 1.49 | 1.31 | 1.08
CEP55 (UniProt Q53EZ4) | -0.129 | -0.0226 | -0.0317
RPS24 (UniProt P62847) | 0.103 | -0.101 | -0.971
JMJD6 (UniProt Q6NYC1) | -0.363 | 0.15 | 0.606
BCAT2 (UniProt O15382) | 0.516 | 0.0921 | 1.1
ATP13A1 (UniProt Q9HD20) | -0.0204 | 0.186 | -0.277
KDSR (UniProt Q06136) | 0.0293 | 0.264 | 0.275
MRS2 (UniProt Q9HD23) | 0.937 | -0.861 | -1.27
STX6 (UniProt O43752) | -0.996 | -0.712 | -0.486
CDK2AP1 (UniProt O14519) | -0.0893 | -0.224 | -0.113
WBP2 (UniProt Q969T9) | 0.689 | 0.465 | -0.0559
HUS1 (UniProt O60921) | -0.436 | -0.56 | -0.902

Target | thermal stability z-score (lipoamide; [1]) | thermal stability z-score (lipoamide; arsenate co-treatment: none) | thermal stability z-score (potassium arsenate)
WDR12 (UniProt Q9GZL7) | 0.771 | 0.222 | 0.0663
FAM134A (UniProt Q8NC44) | 0.119 | -0.141 | -0.162
NR2C2AP (UniProt Q86WQ0) | -0.149 | -0.255 | 0.17
CSNK2A1 (UniProt P68400) | 0.541 | 0.00111 | 0.489
PDCD6 (UniProt O75340) | 1.77 | 0.818 | 0.623
FN3KRP (UniProt Q9HA64) | -0.401 | 0.365 | 0.155
VPS35 (UniProt Q96QK1) | 0.247 | 0.378 | -0.541
PAPSS1 (UniProt O43252) | -0.0513 | -0.0832 | 0.0908
CHTOP (UniProt Q9Y3Y2) | 1.86 | 0.726 | 0.73
UFL1 (UniProt O94874) | -0.791 | -0.41 | 0.145
LRPPRC (UniProt P42704) | -1.08 | -0.312 | -0.267
EXOC5 (UniProt O00471) | -0.0743 | 0.105 | -0.0647
VPS29 (UniProt Q9UBQ0) | -0.418 | -0.247 | -0.613
VDAC2 (UniProt P45880) | 0.262 | 0.307 | 1.58
ARFGAP1 (UniProt Q8N6T3) | -0.303 | 0.304 | 0.357
IMPA2 (UniProt O14732) | 0.737 | 0.182 | -0.728
CKS1B (UniProt P61024) | 0.525 | 0.603 | 0.573
DDOST (UniProt P39656) | -3.14 | -2.49 | 0.00935
GGCT (UniProt O75223) | 1.7 | 1.02 | 1.11
VARS (UniProt P26640) | 0.0159 | -0.0112 | 0.373
TRMT10A (UniProt Q8TBZ6) | -0.927 | -0.427 | 0.266
PKN2 (UniProt Q16513) | 0.0683 | 0.467 | 0.144
CNNM2 (UniProt Q9H8M5) | 0.397 | 0.656 | -0.152
RCN3 (UniProt Q96D15) | -0.715 | -0.986 | -0.0957

Target | thermal stability z-score (lipoamide; [1]) | thermal stability z-score (lipoamide; arsenate co-treatment: none) | thermal stability z-score (potassium arsenate)
FAM160B1 (UniProt Q5W0V3) | -0.512 | -0.179 | -1.49
MISP (UniProt Q8IVT2) | 0.196 | 0.386 | -0.461
SCML2 (UniProt Q9UQR0) | -0.0267 | -0.0968 | -0.22
NT5DC2 (UniProt Q9H857) | 0.0403 | -0.251 | 0.13
RSL1D1 (UniProt O76021) | 0.414 | -0.108 | -0.48
KIF4A (UniProt O95239) | -0.0934 | 0.023 | -0.219
SDHAF3 (UniProt Q9NRP4) | -0.644 | -0.535 | -0.145
SCARB1 (UniProt Q8WTV0) | 0.0511 | 0.144 | 0.58
NAGK (UniProt Q9UJ70) | 0.0756 | -0.796 | -0.921
FGF2 (UniProt P09038) | -0.298 | 0.269 | -1.74
MRPS23 (UniProt Q9Y3D9) | -0.268 | 0.352 | 0.342
HOOK3 (UniProt Q86VS8) | -0.807 | -0.326 | -0.272
TNS4 (UniProt Q8IZW8) | -0.0278 | -0.078 | -0.0861
GALNS (UniProt P34059) | 0.346 | 0.41 | 0.274
POU2F1 (UniProt P14859) | -0.0121 | -0.303 | 0.0127
ANKRD28 (UniProt O15084) | -0.25 | -0.0938 | -0.209
SLC1A3 (UniProt P43003) | -0.157 | 0.124 | 0.352
SRFBP1 (UniProt Q8NEF9) | -0.0373 | -0.0723 | 0.756
FOXRED2 (UniProt Q8IWF2) | -1.43 | -1.2 | 0.897
ABR (UniProt Q12979) | -0.754 | -0.915 | -0.555
TNK1 (UniProt Q13470) | 0.0556 | 0.223 | -0.0895
USP6NL (UniProt Q92738) | 0.194 | -0.0598 | 0.0467
JAK1 (UniProt P23458) | -0.359 | 0.296 | 0.123

Reference: the supplement of paper PMC12463676, “Small-molecule dissolution of stress granules by redox modulation benefits ALS models” (Nature Chemical Biology, 2025)
